Source: patent US20020156236A1, “Binding sites for phosphotyrosine binding domains” (priority 1995, published 2002)
Where a SMILES comes first, the peptide text is derived from it. Where no end group is shown, it is not given here.

Tests used:
[1] = target: T1, GST-PTB domain fusion protein (Homo sapiens, UniProt P29353); experiment: Direct binding of biotinylated peptides to PTB domain (streptavidin-coupled alkaline phosphatase detection); conditions: 500 nM biotinylated peptide, FIG. 3
T1 construct: 100 ng of GST-PTB domain or GST-SH2 domain fusion protein were incubated; made in house; host or cells: Sf9 cells (recombinant baculovirus)
T1 sequence (P29353 156-339 limits assumed): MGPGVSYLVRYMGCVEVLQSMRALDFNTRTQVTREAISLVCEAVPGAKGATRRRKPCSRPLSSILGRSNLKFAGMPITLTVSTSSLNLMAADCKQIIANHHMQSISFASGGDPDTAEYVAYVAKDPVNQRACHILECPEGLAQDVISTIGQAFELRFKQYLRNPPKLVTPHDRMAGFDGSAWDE
Method: (§1) The PTB domain was immunoprecipitated and the washed pellet assayed for the presence of bound peptide with streptavidin-coupled alkaline phosphatase. […] See, Kavanaugh and Williams, supra.
Peptides were biotinylated during synthesis and HPLC purified. 100 ng of GST-PTB domain or GST-SH2 domain fusion protein were incubated in 1×hybridization buffer with 500 nM biotinylated phosphopeptide for 1 hour at 4° C., immunoprecipitated as described in Example 2, above, washed once, and the pellets incubated with 0.25 units of streptavidin-alkaline phosphatase for 5 minutes at 4° C. The pellets were washed twice more, incubated for 3 minutes at room temperature with 1 mg/ml p-nitrophenylphosphate in 100 mM glycine, pH 10.1, 1 mM ZnCl2 and 1 mM MgCl2. The absorbance was measured at 405 nm.

[2] = target: T2, PTB domain/c-erbB2 binding (GST-PTB domain of SHC; c-erbB2 from SKBR3 lysate) (Homo sapiens, UniProt P29353); experiment: biochemical
T2 construct: GST-PTB domain fusion proteins were expressed from recombinant baculovirus in sf9 cells; made in house; host or cells: Sf9 cells (recombinant baculovirus) for GST-PTB; c-erbB2 endogenous in SKBR3 cell lysate
T2 sequence (P29353 156-341): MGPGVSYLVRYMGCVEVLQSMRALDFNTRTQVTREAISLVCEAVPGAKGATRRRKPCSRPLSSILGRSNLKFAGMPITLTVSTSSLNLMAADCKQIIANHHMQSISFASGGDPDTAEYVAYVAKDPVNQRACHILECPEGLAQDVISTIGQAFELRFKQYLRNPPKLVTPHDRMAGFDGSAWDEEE

[3] = target: T3, SHC PTB domain / pp145 derived from activated B cells (Homo sapiens, UniProt P29353); experiment: Blocking of in vitro association of SHC PTB domain with pp145; assay type: binding
T3 sequence (P29353 156-339 limits assumed): T1 sequence (P29353 156-339 limits assumed)
Excerpt: as §1

[4] = target: T4, SH2 domain of SHC (GST-SH2 domain fusion protein) (Homo sapiens, UniProt P29353); experiment: Direct binding of biotinylated peptides to SH2 domain (streptavidin-coupled alkaline phosphatase detection); conditions: 500 nM biotinylated peptide, FIG. 3
T4 construct: 100 ng of GST-PTB domain or GST-SH2 domain fusion protein were incubated
T4 sequence (P29353 488-579 limits assumed): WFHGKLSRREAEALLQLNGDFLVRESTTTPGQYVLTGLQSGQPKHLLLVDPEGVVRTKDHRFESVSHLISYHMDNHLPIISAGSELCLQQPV

Compound	direct binding to PTB domain, in words [1]	IC50 ([2]; Apparent Inhibition (IC50))	block of PTB/c-erbB2 interaction at one peptide concentration, in words ([2]; FIG. 2C, 300 nM peptides (legend says 500 nM))	IC50 ([2]; approximate IC50, inhibition of PTB domain/c-erbB2 binding)	ability to block the PTB domain/c-erbB2 interaction after dephosphorylation ([2]; peptide dephosphorylated with tyrosine-specific phosphatases)	peptide concentration at which substantial inhibition is shown ([2]; varying peptide concentrations, FIG. 2B lower blot)	blocking of association of SHC PTB domain with pp145 [3]	binding to SH2 domain, in words [4]	IC50 ([2]; Affinity (IC50), Table 3, ability to block PTB domain/c-erbB2 binding)
CC(C)C[C@H](NC(=O)[C@H](CC(N)=O)NC(=O)[C@H](CC(=O)O)NC(=O)[C@H](Cc1ccccc1)NC(=O)[C@H](C)NC(=O)[C@@H]1CCCN1C(=O)[C@H](CO)NC(=O)[C@H](Cc1ccccc1)NC(=O)[C@H](C)NC(=O)[C@@H]1CCCN1)C(=O)N[C@@H](Cc1ccc(OP(=O)(O)O)cc1)C(=O)N[C@@H](Cc1ccc(OP(=O)(O)O)cc1)C(=O)N[C@@H](Cc1c[nH]c2ccccc12)C(=O)N[C@@H](CC(=O)O)C(=O)N[C@@H](CCC(N)=O)C(=O)N[C@@H](CC(N)=O)C(=O)N[C@@H](CO)C(=O)N[C@@H](CO)C(=O)N[C@@H](CCC(=O)O)C(=O)N[C@@H](CCC(N)=O)C(=O)NCC(=O)O [PAFSPAFDNL (pY) (pY) WDQNSSEQG, PAFSPAFDNL(pY)(pY)WDQNSSEQG] (HELM PEPTIDE1{P.A.F.S.P.A.F.D.N.L.[O=C([C@H](Cc1ccc(OP(=O)(O)O)cc1)N[*:1])[*:2]].[O=C([C@H](Cc1ccc(OP(=O)(O)O)cc1)N[*:1])[*:2]].W.D.Q.N.S.S.E.Q.G}$$$$V2.0)	able to bind directly	0.05 µM	completely block	~0.05 µM	unable to block	50 nM	blocks association	inability of the SH2 domain of SHC to bind	
CC(C)C[C@H](NC(=O)[C@@H]1CCCN1C(=O)[C@H](C)NC(=O)[C@@H](NC(=O)[C@H](Cc1ccc(OP(=O)(O)O)cc1)NC(=O)CNC(=O)[C@H](CC(=O)O)NC(=O)[C@@H](NC(=O)[C@H](CCC(=O)O)NC(=O)[C@@H]1CCCN1C(=O)[C@@H]1CCCN1C(=O)[C@H](CC(C)C)NC(=O)[C@@H]1CCCN1C(=O)[C@H](CC(C)C)NC(=O)[C@@H](N)[C@@H](C)O)[C@@H](C)O)C(C)C)C(=O)N[C@@H](C)C(=O)N[C@@H](CS)C(=O)N[C@@H](CO)C(=O)N1CCC[C@H]1C(=O)N[C@@H](CCC(N)=O)C(=O)O [TLPLPPETDG (pY) VAPLACSPQ, TLPLPPETDG(pY)VAPLACSPQ] (HELM PEPTIDE1{T.L.P.L.P.P.E.T.D.G.[O=C([C@H](Cc1ccc(OP(=O)(O)O)cc1)N[*:1])[*:2]].V.A.P.L.A.C.S.P.Q}$$$$V2.0)		> 100 µM							
PAFSPAFDNLEEWDQNSSEQG									> 30 µM
